# Measured values: patent US20260217708A1, “FUSED BENZAZEPINE DERIVATIVES FOR USE IN THE TREATMENT OF CANCER AND EPILEPSY” (UCB BIOPHARMA SRL, priority 2023, published 2026)
# Columns and labels:
# system Xc^− [1] = target: T1, system Xc^− (Homo sapiens, UniProt Q9UPY5); test: Cystine-induced glutamate release assay; format: cell-based; set-up: endogenous in cells; host or cells: H4 cells; conditions: H4 cells, sodium-free HEPES buffer, 50 μM L-Cystine, 2 hours, Amplex Red glutamate readout; read-out: pIC50 Cystine-induced glutamate release assay (converted)
# T1 sequence (Q9UPY5 1-501): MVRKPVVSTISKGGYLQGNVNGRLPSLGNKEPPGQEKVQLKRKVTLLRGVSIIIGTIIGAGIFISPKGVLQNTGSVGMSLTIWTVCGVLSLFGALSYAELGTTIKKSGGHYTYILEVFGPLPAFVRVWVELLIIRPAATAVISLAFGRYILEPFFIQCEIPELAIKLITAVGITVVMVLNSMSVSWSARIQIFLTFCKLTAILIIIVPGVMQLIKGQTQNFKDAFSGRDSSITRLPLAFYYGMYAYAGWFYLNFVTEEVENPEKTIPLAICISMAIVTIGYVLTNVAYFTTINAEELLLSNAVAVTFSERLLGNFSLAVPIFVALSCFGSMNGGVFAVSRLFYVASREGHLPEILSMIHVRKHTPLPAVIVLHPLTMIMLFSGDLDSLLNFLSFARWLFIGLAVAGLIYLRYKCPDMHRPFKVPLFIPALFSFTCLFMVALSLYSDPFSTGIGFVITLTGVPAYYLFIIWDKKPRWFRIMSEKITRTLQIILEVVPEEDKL
# T1 sequence (P08195 1-529 partner): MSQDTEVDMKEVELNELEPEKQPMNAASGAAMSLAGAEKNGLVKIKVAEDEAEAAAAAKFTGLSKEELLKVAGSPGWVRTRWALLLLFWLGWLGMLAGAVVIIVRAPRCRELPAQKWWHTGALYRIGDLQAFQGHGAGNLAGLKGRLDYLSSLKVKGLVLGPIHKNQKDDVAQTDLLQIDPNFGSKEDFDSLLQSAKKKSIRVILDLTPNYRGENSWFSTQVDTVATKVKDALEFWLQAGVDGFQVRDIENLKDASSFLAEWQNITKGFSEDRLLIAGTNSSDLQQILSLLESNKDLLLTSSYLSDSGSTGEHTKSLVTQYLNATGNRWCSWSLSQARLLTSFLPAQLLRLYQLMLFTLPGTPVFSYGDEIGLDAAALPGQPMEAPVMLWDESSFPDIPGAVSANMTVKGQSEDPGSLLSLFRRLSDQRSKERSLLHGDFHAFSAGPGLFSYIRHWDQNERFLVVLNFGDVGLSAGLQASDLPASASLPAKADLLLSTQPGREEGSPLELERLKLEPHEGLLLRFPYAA
# Outline: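 H4 cells in sodium-free HEPES buffer (pH 7.4), 2 days after plating; glutamate release induced with 50 μM L-cystine plus compound (1% DMSO), 2 h at 37 °C. Supernatant glutamate measured by Amplex Red fluorescence; IC50/pIC50 derived between 1% DMSO and 50 μM erastin controls.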
# system Xc^− [2] = target: T1, system Xc^−; test: [^14C]L-Cystine uptake assay; format: cell-based; set-up: endogenous in cells; host or cells: H4 cells; conditions: H4 cells, sodium-free HEPES buffer, 0.5 μM L-[14C]Cystine and 4.5 μM L-Cystine, 1 hour at 37° C.; read-out: pIC50 [^14C] L-Cystine uptake assay (converted)
# Outline: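 H4 cells at 5×10^4 cells/well in sodium-free HEPES buffer were preincubated 15 min with compounds (1% DMSO). Uptake of 0.5 μM [14C]L-cystine plus 4.5 μM unlabelled L-cystine ran 1 hour at 37° C on scintillating plates. IC50 was set between 1% DMSO and 50 μM Erastin controls and expressed as pIC50.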
Compound,IC50 (system Xc^− [1]) [nM],IC50 (system Xc^− [2]) [nM]
"Cc1cc2c(c(F)n1)-c1ccccc1CC(=O)N2CC(=O)Nc1ccc(C(F)(F)F)cc1 [#39, 2-(1-fluoro-3-methyl-6-oxo-7H-pyrido[4,3-d][3]benzazepin-5-yl)-N-[4-(trifluorometh-yl)phenyl]acetamide]",15.8 to 39.8,15.8 to 39.8
"Cc1cc2c(c(F)n1)-c1cccnc1CC(=O)N2CC(=O)Nc1ccc(C(F)(F)F)cc1 [#40, 2-(3-fluoro-5-methyl-9-oxo-4,8,12-triaza-tricyclo[9.4.0.0^2,7]pentadeca-1(11),2(7), 3,5,12,14-hexaen-8-yl)-N-[4-(trifluoro-methyl)phenyl]acet-amide]",15.8 to 39.8,< 15.8
"Cc1cc2c(c(F)n1)-c1ncccc1CC(=O)N2CC(=O)Nc1ccc(Cl)c(F)c1 [#41, N-(4-chloro-3-fluoro-phenyl)-2-(15-fluoro-13-methyl-9-oxo-3,10,14-triazatricyclo [9.4.0.0^2,7]pentadeca-1(11),2(7),3,5,12,14-hexaen-10-yl)acetamide]",100 to 501,100 to 501
"Cc1cc2c(c(F)n1)-c1sccc1CC(=O)N2CC(=O)Nc1ccc(C(F)(F)F)cc1 [#42, 2-(14-fluoro-12-meth-yl-8-oxo-3-thia-9,13-diazatricyclo[8.4.0.0^2,6]tetradeca-1(10),2(6), 4,11,13-pentaen-9-yl)-N-[4-(trifluorometh-yl)phenyl]acetamide]",39.8 to 100,39.8 to 100
"O=C(CN1C(=O)Cc2ncccc2-c2c1cc(F)nc2F)Nc1ccc(C(F)(F)F)cc1 [#43, 2-(3,5-difluoro-9-oxo-4,8,12-triazatricyclo [9.4.0.0^2,7]pentadeca-1(11),2,4,6,12,14-hexaen-8-yl)-N-[4-(trifluoromethyl)phen-yl]acetamide]",39.8 to 100,100 to 501
"Cc1cc2c(cn1)-c1ccc(Cl)cc1CC(=O)N2CC(=O)Nc1ccc(C(F)(F)F)cc1 [#44, 2-(9-chloro-3-methyl-6-oxo-7H-pyrido[4,3-d][3]benzazepin-5-yl)-N-[4-(trifluoromethyl)phenyl]acetamide]",39.8 to 100,39.8 to 100
"Cc1cncc2c1-c1ccccc1CC(=O)N2CC(=O)Nc1ccc(C(F)(F)F)cc1 [#45, 2-(1-methyl-6-oxo-7H-pyrido[3,4-d][3]benzazepin-5-yl)-N-[4-(trifluoromethyl)phenyl]acetamide]",39.8 to 100,100 to 501
"CN1CCN(c2cc3c(cn2)-c2ccccc2CC(=O)N3CC(=O)Nc2ccc(C(F)(F)F)cc2)CC1=O [#46, 2-[3-(4-methyl-3-oxo-piperazin-1-yl)-6-oxo-7H-pyrido[4,3-d][3]benzazepin-5-yl]-N-[4-(trifluoromethyl)phenyl]acetamide]",39.8 to 100,15.8 to 39.8
"O=C(CN1C(=O)Cc2ccccc2-c2cnc(N3CC(F)(F)C3)cc21)Nc1ccc(C(F)(F)F)cc1 [#47, 2-[3-(3,3-difluoroazetidin-1-v)-6-oxo-7H-pyrido[4,3-d][3]benzazepin-5-yl]-N-[4-(trifluoromethyl)phenyl]acetamide]",39.8 to 100,15.8 to 39.8
"Cc1cc2c(c(Cl)n1)-c1ccccc1CC(=O)N2CC(=O)Nc1ccc(C(F)(F)F)cc1 [#49, 2-(1-chloro-3-methyl-6-oxo-7H-pyrido[4,3-d][3]benzazepin-5-yl)-N-[4-(trifluoromethyl)phenyl]acetamide]",15.8 to 39.8,< 15.8
"O=C(CN1C(=O)Cc2cc(F)ccc2-c2c1ccnc2Cl)Nc1ccc(C(F)(F)F)cc1 [#51, 2-(1-chloro-9-fluoro-6-oxo-7H-pyrido[4,3-d][3]benzazepin-5-yl)-N-[4-(trifluoromethyl)-phenyl]acetamide]",39.8 to 100,< 15.8
"Cc1cc2c(c(C(F)F)n1)-c1ccccc1CC(=O)N2CC(=O)Nc1ccc(C(F)(F)F)cc1 [#56, 2-[1-(difluoromethyl)-3-methyl-6-oxo-7H-pyrido[4,3-d][3]benzazepin-5-yl]-N-[4-(trifluoromethyl)phenyl]acetamide]",39.8 to 100,39.8 to 100

# Results, then the compound that gave them:
IC50 (system Xc^− [1]) [nM],IC50 (system Xc^− [2]) [nM],Compound
100 to 501,100 to 501,"Cc1cc2c(cn1)-c1ccnn1CC(=O)N2CC(=O)Nc1ccc(C(F)(F)F)cc1 [#48, 2-(12-methyl-8-oxo-5,6,9,13-tetrazatricyclo[8.4.0.0^2,6]tetradeca-1(10),2,4,11,13-pentaen-9-yl)-N-[4-(trifluoromethyl)phenyl]acetamide]"
39.8 to 100,< 15.8,"Cc1cc2c(c(Cl)n1)-c1ccccc1CC(=O)N2CC(=O)Nc1ccc(Cl)c(F)c1 [#50, N-(4-chloro-3-fluoro-phenyl)-2-(1-chloro-3-methyl-6-oxo-7H-pyrido[4,3-d][3]benz-azepin-5-yl)acetamide]"
100 to 501,100 to 501,"O=C(CN1C(=O)Cc2ncccc2-c2c1cc(Cl)c(F)c2Cl)Nc1ccc(C(F)(F)F)cc1 [#52, 2-(9,11-dichloro-10-fluoro-6-oxo-5H-pyrido[2,3-d][1]benz-azepin-7-yl)-N-[4-(trifluoromethyl)phen-yl]acetamide]"
100 to 501,39.8 to 100,"O=C(CN1C(=O)Cc2ncccc2-c2c1ccnc2Cl)Nc1ccc(C(F)(F)F)cc1 [#53, 2-(3-chloro-9-oxo-4,8,12-triazatricyclo [9.4.0.0^2,7]pentadeca-1(11),2(7),3,5,12,14-hexaen-8-yl)-N-[4-(trifluoromethyl)phen-yl]acetamide]"
100 to 501,39.8 to 100,"N#Cc1ccc2c(c1F)-c1cccnc1CC(=O)N2CC(=O)Nc1ccc(C(F)(F)F)cc1 [#54, 2-(10-cyano-11-fluoro-6-oxo-5H-pyrido[2,3-d][1]benzazepin-7-yl)-N-[4-(trifluoromethyl)-phenyl]acetamide]"
39.8 to 100,100 to 501,"Cc1cc2c(c(O)n1)-c1ccccc1CC(=O)N2CC(=O)Nc1ccc(C(F)(F)F)cc1 [#55, 2-(1-hydroxy-3-methyl-6-oxo-7H-pyrido[4,3-d][3]benzazepin-5-yl)-N-[4-(trifluoromethyl)phenyl]acetamide]"
15.8 to 39.8,15.8 to 39.8,"Cc1cc2c(c(C)n1)-c1cccnc1CC(=O)N2CC(=O)Nc1ccc(C(F)(F)F)cc1 [#57, 2-(3,5-dimethyl-9-oxo-4,8,12-triazatricyclo[9.4.0.0^2,7]pentadeca-1(11),2(7),3,5,12,14-hexaen-8-yl)-N-[4-(trifluoromethyl)phenyl]acetamide]"
39.8 to 100,100 to 501,"Cc1cc2c(c(C)n1)-c1cccnc1CC(=O)N2CC(=O)Nc1ccc(C2CC2)cc1 [#58, N-(4-cyclopropylphenyl)-2-(3,5-dimethyl-9-oxo-4,8,12-triazatricyclo[9.4.0.0^2,7]pentadeca-1(11),2(7),3,5,12,14-hexaen-8-yl)acetamide]"
100 to 501,100 to 501,"CC(=O)OCc1cc2c(cn1)-c1ccccc1CC(=O)N2CC(=O)Nc1ccc(C(F)(F)F)cc1 [#59, [6-oxo-5-[2-oxo-2-[4-(trifluoromethyl)anilino]ethyl]-7H-pyrido[4,3-d][3]benzazepin-3-yl]methyl acetate]"
100 to 501,100 to 501,"O=C(CN1C(=O)Cc2ccccc2-c2cnc(CO)cc21)Nc1ccc(C(F)(F)F)cc1 [#60, 2-[3-(hydroxymethyl)-6-oxo-7H-pyrido[4,3-d][3]benzazepin-5-yl]-N-[4-(trifluoromethyl)phenyl]acetamide]"
15.8 to 39.8,< 15.8,"Cc1cc2c(c(C#N)n1)-c1ccccc1CC(=O)N2CC(=O)Nc1ccc(C(F)(F)F)cc1 [#61, 2-(1-cyano-3-methyl-6-oxo-7H-pyrido[4,3-d][3]benzazepin-5-yl)-N-[4-(trifluoromethyl)phenyl]acetamide]"
